Test system: mutant (Q111) Htt
Assay: Newly synthesized Htt transcripts, 4sU metabolic labeling, Q111 cells
Assay type: cell-based, mouse
Conditions: 4sU for 2 hours
Procedure: Metabolic labeling of newly synthesized RNA with 4-thiouridine (4sU)—STHdh Q111 and STHdh Q7 cells (collected from 10 cm dishes) were treated for 30 minutes with DMSO (vehicle control) or the tested SPI compound (e.g., SPJ-21). Following, 4-thiouridine (4sU, 150 μM final concentration) was added for additional 2 hours. The labeling was terminated by removing the 4sU-containing medium and washing the cells 3 times with phosphate-buffered saline (PBS). Total RNA was extracted as described above. […]
Huntington's disease (HD) is an inherited genetic disorder caused by expansion trinucleotide CAG repeats (36 and higher) encoding glutamine (Q) in the huntingtin (Htt) gene. […] The two cell lines were treated for 48 hours with the identified SPIs and following the levels of Htt mRNA were determined. […] Moreover, the levels measured from the second exon relative to the first were fairly higher in Q7 compared to Q111 and this small difference was kept all along the gene. […]
In assays conducted for showing that the selective effect on mutant Htt is at the transcription level, the cells were metabolically labeled with 4-thio-uridine (4sU) for 2 hours in the presence of DMSO of the indicated SPI analogs. […] Newly synthesized Htt transcript levels were determined by RT-qPCR.

Q: With `COc1ccc(C=CC(=O)c2cc(O)ccc2O)cc1` [SPI-21] as the molecule, how does the “levels of newly synthesized Q111 Htt” value read?
A: diminished

Source: patent US12661353B2, “SPT5 inhibitors and uses thereof” (Yeda Research and Development Co. Ltd., priority 2020, dated 2026)
